Experimental data reported in ChEMBL document CHEMBL4118205, “Design, synthesis and biological evaluation of artemisinin derivatives containing fluorine atoms as anticancer agents” (Bioorg Med Chem Lett, 2018).
pIC50: −log10 of the molar value. Active and inactive are the calls of the source. The calls are words filed in the database; no cut-off is given here.

Key:
MCF7 [1] = assay: Induction of apoptosis in human MCF7 cells assessed as necrotic cells at 5 uM after 48 hrs by Annexin-V FITC/propidium iodide staining based flow cytometry (reference value: 4.69%); type: functional
A549 = assay: Cytotoxicity against human A549 cells assessed as reduction in cell viability after 72 hrs by MTT assay; type: functional, cell-based; settings: A549, 72 h
MCF7 [2] = assay: Cell cycle arrest in human MCF7 cells assessed as accumulation at G1 phase at 1 uM after 48 hrs by propidium iodide staining based flow cytometry (reference value: 45.21%); type: functional
MCF7 [3] = assay: Induction of apoptosis in human MCF7 cells assessed as late apoptotic cells at 20 uM after 48 hrs by Annexin-V FITC/propidium iodide staining based flow cytometry (reference value: 6.22%); type: functional
MCF7 [4] = assay: Induction of apoptosis in human MCF7 cells assessed as viable cells at 5 uM after 48 hrs by Annexin-V FITC/propidium iodide staining based flow cytometry (reference value: 88.59%); type: functional; settings: MCF7, 48 h, read-out: Activity
SH-SY5Y = assay: Cytotoxicity against human SH-SY5Y cells assessed as reduction in cell viability after 72 hrs by MTT assay; type: functional, cell-based
MCF7 [5] = assay: Cell cycle arrest in human MCF7 cells assessed as accumulation at G1 phase at 2.5 uM after 48 hrs by propidium iodide staining based flow cytometry (reference value: 45.21%); type: functional
MCF7 [6] = assay: Cell cycle arrest in human MCF7 cells assessed as accumulation at S phase at 2.5 uM after 48 hrs by propidium iodide staining based flow cytometry (reference value: 41.55%); type: functional
MCF7 [7] = assay: Cell cycle arrest in human MCF7 cells assessed as accumulation at G1 phase at 0.5 uM after 48 hrs by propidium iodide staining based flow cytometry (reference value: 45.21%); type: functional
MCF7 [8] = assay: Cell cycle arrest in human MCF7 cells assessed as accumulation at S phase at 1 uM after 48 hrs by propidium iodide staining based flow cytometry (reference value: 41.55%); type: functional
MCF7 [9] = assay: Induction of apoptosis in human MCF7 cells assessed as early apoptotic cells at 10 uM after 48 hrs by Annexin-V FITC/propidium iodide staining based flow cytometry (reference value: 0.50%); type: functional
MCF7 [10] = assay: Induction of apoptosis in human MCF7 cells assessed as viable cells at 1 uM after 48 hrs by Annexin-V FITC/propidium iodide staining based flow cytometry (reference value: 88.59%); type: functional; settings: MCF7, 48 h, read-out: Activity
MCF7 [11] = assay: Induction of apoptosis in human MCF7 cells assessed as morphological alteration up to 20 uM after 48 hrs by Hoechst 33258 staining based fluorescence microscopic method; type: functional, cell-based
MCF7 [12] = assay: Cell cycle arrest in human MCF7 cells assessed as accumulation at S phase at 10 uM after 48 hrs by propidium iodide staining based flow cytometry (reference value: 41.55%); type: functional
MCF7 [13] = assay: Induction of apoptosis in human MCF7 cells assessed as granular apoptotic body formation up to 20 uM after 48 hrs by Hoechst 33258 staining based fluorescence microscopic method; type: functional, cell-based
MCF7 [14] = assay: Induction of apoptosis in human MCF7 cells assessed as viable cells at 2.5 uM after 48 hrs by Annexin-V FITC/propidium iodide staining based flow cytometry (reference value: 88.59%); type: functional; settings: MCF7, 48 h, read-out: Activity
MCF7 [15] = assay: Induction of apoptosis in human MCF7 cells assessed as early apoptotic cells at 5 uM after 48 hrs by Annexin-V FITC/propidium iodide staining based flow cytometry (reference value: 0.50%); type: functional
MCF7 [16] = assay: Induction of apoptosis in human MCF7 cells assessed as early apoptotic cells at 1 uM after 48 hrs by Annexin-V FITC/propidium iodide staining based flow cytometry (reference value: 0.50%); type: functional
MCF7 [17] = assay: Cell cycle arrest in human MCF7 cells assessed as accumulation at G2 phase at 1 uM after 48 hrs by propidium iodide staining based flow cytometry (reference value: 13.24%); type: functional
MCF7 [18] = assay: Induction of apoptosis in human MCF7 cells assessed as late apoptotic cells at 1 uM after 48 hrs by Annexin-V FITC/propidium iodide staining based flow cytometry (reference value: 6.22%); type: functional
MCF7 [19] = assay: Induction of apoptosis in human MCF7 cells assessed as early apoptotic cells at 2.5 uM after 48 hrs by Annexin-V FITC/propidium iodide staining based flow cytometry (reference value: 0.50%); type: functional
MCF7 [20] = assay: Induction of apoptosis in human MCF7 cells assessed as late apoptotic cells at 10 uM after 48 hrs by Annexin-V FITC/propidium iodide staining based flow cytometry (reference value: 6.22%); type: functional
MCF7 [21] = assay: Cytotoxicity against human MCF7 cells assessed as reduction in cell viability after 72 hrs by MTT assay; type: functional, cell-based; settings: MCF7, 72 h
MCF7 [22] = assay: Cell cycle arrest in human MCF7 cells assessed as accumulation at G1 phase at 10 uM after 48 hrs by propidium iodide staining based flow cytometry (reference value: 45.21%); type: functional
MCF7 [23] = assay: Induction of apoptosis in human MCF7 cells assessed as early apoptotic cells at 20 uM after 48 hrs by Annexin-V FITC/propidium iodide staining based flow cytometry (reference value: 0.50%); type: functional
MCF7 [24] = assay: Induction of apoptosis in human MCF7 cells assessed as viable cells at 20 uM after 48 hrs by Annexin-V FITC/propidium iodide staining based flow cytometry (reference value: 88.59%); type: functional; settings: MCF7, 48 h, read-out: Activity
MCF7 [25] = assay: Induction of apoptosis in human MCF7 cells after 48 hrs by Annexin-V FITC/propidium iodide staining based flow cytometry; type: functional, cell-based
MCF7 [26] = assay: Induction of apoptosis in human MCF7 cells assessed as late apoptotic cells at 5 uM after 48 hrs by Annexin-V FITC/propidium iodide staining based flow cytometry (reference value: 6.22%); type: functional
MCF7 [27] = assay: Induction of apoptosis in human MCF7 cells assessed as cell shrinkage up to 20 uM after 48 hrs by Hoechst 33258 staining based fluorescence microscopic method; type: functional
U-87 MG = assay: Cytotoxicity against human U87 cells assessed as reduction in cell viability after 72 hrs by MTT assay; type: functional, cell-based, U-87MG ATCC
MCF7 [28] = assay: Induction of apoptosis in human MCF7 cells assessed as necrotic cells at 2.5 uM after 48 hrs by Annexin-V FITC/propidium iodide staining based flow cytometry (reference value: 4.69%); type: functional
A-375 = assay: Cytotoxicity against human A375 cells assessed as reduction in cell viability after 72 hrs by MTT assay; type: functional, cell-based; settings: A-375, 72 h
MDA-MB-231 = assay: Cytotoxicity against human MDA-MB-231 cells assessed as reduction in cell viability after 72 hrs by MTT assay; type: functional, cell-based; settings: MDA-MB-231, 72 h
L02 = assay: Cytotoxicity against human L02 cells assessed as reduction in cell viability after 72 hrs by MTT assay; type: functional, cell-based; settings: L02, 72 h
MCF7 [29] = assay: Cell cycle arrest in human MCF7 cells assessed as accumulation at S phase at 5 uM after 48 hrs by propidium iodide staining based flow cytometry (reference value: 41.55%); type: functional
MCF7 [30] = assay: Induction of apoptosis in human MCF7 cells assessed as necrotic cells at 20 uM after 48 hrs by Annexin-V FITC/propidium iodide staining based flow cytometry (reference value: 4.69%); type: functional
MCF7 [31] = assay: Cell cycle arrest in human MCF7 cells assessed as accumulation at G1 phase at 5 uM after 48 hrs by propidium iodide staining based flow cytometry (reference value: 45.21%); type: functional

C[C@H]1[C@H](N2CCN(C(=O)Nc3ccc(OC(F)(F)F)cc3)CC2)O[C@@H]2O[C@@]3(C)CC[C@H]4[C@H](C)CC[C@@H]1[C@@]24OO3
Activity (MCF7 [1]): 21.51%
pIC50 (A549): 4.70
Activity (MCF7 [2]): 56.57%
Activity (MCF7 [3]): 68.8%
viability at 5 µM (MCF7 [4]): 43.5%
pIC50 (SH-SY5Y): 5.44
Activity (MCF7 [5]): 64.46%
Activity (MCF7 [6]): 26.36%
Activity (MCF7 [7]): 47.95%
Activity (MCF7 [8]): 33.33%
Activity (MCF7 [9]): 0.8%
viability at 1 µM (MCF7 [10]): 84.4%
Activity (MCF7 [11]): Active
Activity (MCF7 [12]): 9.2%
Activity (MCF7 [13]): Active
viability at 2.5 µM (MCF7 [14]): 59.5%
Activity (MCF7 [15]): 1.38%
Activity (MCF7 [16]): 0.48%
Activity (MCF7 [17]): 10.09%
Activity (MCF7 [18]): 7.01%
Activity (MCF7 [19]): 0.66%
Activity (MCF7 [20]): 53.36%
pIC50 (MCF7 [21]): 5.68
Activity (MCF7 [22]): 83.5%
Activity (MCF7 [23]): 4.78%
viability at 20 µM (MCF7 [24]): 16.2%
Activity (MCF7 [25]): Dose-dependent effect
Activity (MCF7 [26]): 33.62%
Activity (MCF7 [27]): Active
pIC50 (U-87 MG): 4.71
Activity (MCF7 [28]): 20.85%
pIC50 (A-375): 5.47
pIC50 (MDA-MB-231): 5.08
pIC50 (L02): 5.17
Activity (MCF7 [29]): 15.49%
Activity (MCF7 [30]): 10.18%
Activity (MCF7 [31]): 76.68%
